Measured values taken from paper PMC6155272, “Chroman-4-One Derivatives Targeting Pteridine Reductase 1 and Showing Anti-Parasitic Activity” (Molecules : A Journal of Synthetic Chemistry and Natural …, 2017).

Molecular target: T1, CYP1A2 (Homo sapiens, UniProt P05177)
T1 construct: purchased Promega; host or cells: baculovirus-infected insect cells
T1 sequence (P05177 1-516): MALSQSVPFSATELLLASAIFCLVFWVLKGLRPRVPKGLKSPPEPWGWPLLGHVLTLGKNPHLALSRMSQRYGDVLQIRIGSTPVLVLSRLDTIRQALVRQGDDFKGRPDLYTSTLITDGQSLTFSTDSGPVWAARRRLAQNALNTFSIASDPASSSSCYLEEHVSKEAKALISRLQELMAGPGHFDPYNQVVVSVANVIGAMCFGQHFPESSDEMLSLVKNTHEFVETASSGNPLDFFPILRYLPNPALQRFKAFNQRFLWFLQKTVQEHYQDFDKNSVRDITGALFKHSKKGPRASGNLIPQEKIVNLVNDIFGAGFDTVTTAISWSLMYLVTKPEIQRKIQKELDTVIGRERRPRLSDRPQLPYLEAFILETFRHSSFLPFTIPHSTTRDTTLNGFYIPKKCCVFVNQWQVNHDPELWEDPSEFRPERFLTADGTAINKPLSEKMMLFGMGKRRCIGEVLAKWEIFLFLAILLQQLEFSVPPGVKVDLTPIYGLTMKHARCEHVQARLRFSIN
Test: Cytochrome P450 1A2 assay (P450-Glo)
Assay type: in vitro ADME
Conditions: for inhibition at 10 µM: human
Description: These assays made use of the PromegaP450-Glo™ (Madison, AL, USA) assay platform. Each CYP450 assay includes microsomal preparations of cytochromes from baculovirus-infected insect cells.

Structure (SMILES)	IC50 [µM]	inhibition at 10 µM [%]
O=C1CC(c2ccc(O)c(O)c2)Oc2ccc(O)cc21 (stereo not drawn) [Compound 3]	62	< 15
O=C1CC(c2ccc(O)cc2)Oc2ccc(O)cc21 (stereo not drawn) [Compound 2]	59	< 15
O=C1CC(c2cccc(O)c2)Oc2ccc(O)cc21 (stereo not drawn) [Compound 1]	29	3
